Source: US9469674B2 (HAINAN UNIVERSITY, dated 2016)

System: Chronic Constriction Injury model of ischiadic nerve (neuralgia)
Conditions: rat, in vivo

CN1CC[C@]23c4c5ccc(O)c4O[C@H]2[C@@H](O)C=C[C@H]3[C@H]1C5 [morphine, reference compound]
analgesic effect on neuralgia: no analgesic effect | mechanical threshold after withdrawal: no significant difference
